Tests used:
PPARγ [1] = molecular target: T1, PPARγ (Homo sapiens, UniProt P37231); experiment: LanthaScreen TR-FRET competitive binding assay
T1 construct: gene PPARG; GST-fused human PPARγ-LBD
T1 sequence (P37231 231-505 limits assumed): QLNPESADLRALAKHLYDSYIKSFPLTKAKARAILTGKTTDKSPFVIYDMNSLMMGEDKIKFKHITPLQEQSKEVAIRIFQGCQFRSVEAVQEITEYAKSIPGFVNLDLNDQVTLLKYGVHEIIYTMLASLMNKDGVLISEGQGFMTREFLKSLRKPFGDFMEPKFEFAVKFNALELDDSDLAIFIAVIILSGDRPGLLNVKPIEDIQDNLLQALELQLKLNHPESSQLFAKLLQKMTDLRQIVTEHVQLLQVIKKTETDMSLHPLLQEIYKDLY

PPARγ [2] = molecular target: T1, PPARγ; experiment: LanthaScreen TR-FRET competitive binding assay (reference agonist; value not given)

Structure (SMILES) | Ki (PPARγ [1]) [nM] | LanthaScreen TR-FRET competitive binding assay (reference agonist); no value prin (PPARγ [2])
C[C@H]1[C@H](C)CC[C@]2(C(=O)O)CC[C@]3(C)C(=CC[C@@H]4[C@@]5(C)C[C@@H](O)[C@H](O)[C@@](C)(CO)[C@@H]5[C@H](O)C[C@]43C)[C@H]12 [madecassic acid] | 1610 | –
CN(CCOc1ccc(CC2SC(=O)NC2=O)cc1)c1ccccn1 (centres unmarked) [rosiglitazone] | – | Madecassic acid or rosiglitazone was cultured with GST-fused human PPARγ-LBD, terbium-labeled anti-GST antibody and a fluorescently labeled PPAR ligand

— article PMC5386545, “Madecassic acid, the contributor to the anti-colitis effect of madecassoside, enhances the shift of Th17 toward Treg cells via the PPARγ/AMPK/ACC1 pathway” (Cell Death & Disease, 2017)
